The assay concerns L. casei. The experiment in a line: Growth inhibition of oral microorganisms in vitro, pour plates. Conditions: Table IX. Format: cell-based, Lactobacillus casei. As to the method:
(a)Determined on freshly grown pure cultures. Pour plates were incubated

With `CCCCCCCCCC=O` [Decanaldehyde], the “Bacterial Population, Experimental” value (control 8 × 10^8 to 1 × 10^9) is listed as 4 × 10^2. In addition, the “Inhibition (growth)” value (pour plates incubated 48 - 72 hours) is given as over 99.99%.
